Earlier results, collected in patent US20100285114A1, “PHARMACEUTICAL COMPOSITIONS OF RHEIN OR DIACEREIN” (priority 2007, published 2010).
Structures can show the parent of a compound that is named as a salt.

Key:
[1] = in vivo

| soft stool effect expected due to inherent pharmacokinetic property (enterohepatic circulation) [1] | solubility (in water, alcohols, acetone, dichloromethane and chloroform) | solubility in water (disclosed in EP 243,968) | SMILES |
| --- | --- | --- | --- |
| 30-40% | practically insoluble | – | CC(=O)Oc1cccc2c1C(=O)c1c(OC(C)=O)cc(C(=O)O)cc1C2=O [diacerein, 4,5-bis (acetyloxy) 9,10-dihydro-4,5-dihydroxy-9,10-dioxo-2-anthracenecarboxylic acid] |
| – | – | water-soluble | CC(=O)Oc1cccc2c1C(=O)c1c(OC(C)=O)cc(C(=O)O)cc1C2=O [potassium salt of diacerein] |
